Data from patent US20120041172A1, “METHOD FOR THE MANUFACTURE OF DEGARELIX” (Polypeptide Laboratories A/S, priority 2009, published 2012).
Non-standard residues stand in square brackets, D forms with d. Residues, ends and D or L forms follow the SMILES beside them. *: point of attachment. dPhe(4-NHCONH2) = NC(=O)Nc1ccc(C[C@@H](N)C(=O)O)cc1; Dihydroorotyl(S) = O=C1C[C@@H](C(=O)*)NC(=O)N1; dPhe(4-Cl) = N[C@H](Cc1ccc(Cl)cc1)C(=O)O; Phe(4-NH2) = Nc1ccc(C[C@H](N)C(=O)O)cc1; d2Nal = N[C@H](Cc1ccc2ccccc2c1)C(=O)O; Lys(iPr) = CC(C)NCCCC[C@H](N)C(=O)O; d3Pal = N[C@H](Cc1cccnc1)C(=O)O

Assays:
[1] = Stability of degarelix in DBU/DMF and piperidine/DMF (Fmoc-removal conditions), HPLC; type: physicochemical; conditions: 20 h
Procedure: Stability of degarelix in DBU/DMF and piperidine/DMF. The stability of degarelix was tested under conditions corresponding to those used for removal of the Fmoc-group during SPPS. The hydroorotic group in the side chain of 4Aph(Hor), amino acid residue no. 5 in the sequence of degarelix, is known to be sensitive to base and rearrange to a hydantoinacetyl group. All SPPS procedures known to the inventors had been based on Boc-chemistry.
Samples of degarelix were dissolved in 20% piperidine/DMF; 2% DBU in DMF, and 2% DBU+5% water in DMF; respectively. The samples were analysed by HPLC after 20 h and the amount of the hydantoin analogue determined.
If 5% water was present, too (simulating wet DMF), the amount was increased to 7%.

[2] = Instability of the hydroorotic moiety under basic conditions (DCHA in wet 2-BuOH); type: physicochemical; conditions: 67 mM in wet 2-BuOH with 167 mM (2.5 eq) DCHA, 31° C, after 25 h
Procedure: The following experiment provided further proof of the instability of the hydrooroic moiety under basic conditions. Z-Ser(tBu)-4Aph(Hor)-D-4Aph(tBu-Cbm)-Leu-OH.DCHA (67 mM) was dissolved in wet 2-BuOH with 167 mM (2.5 eq) DCHA at 31° C. After 25 h, 1.3% of the hydantoin analogue and 0.3% of the hydrolysed intermediate had been formed.

Molecule	amount of the hydantoin analogue formed ([1]; 2% DBU + 5% water in DMF (simulating wet DMF)) [%]	amount of the hydantoin analogue formed ([1]; 2% DBU in DMF) [%]	formation of the hydantoin analogue ([1]; 20% piperidine in DMF)	hydantoin analogue formed [2] [%]	hydrolysed intermediate formed [2] [%]
CC(=O)N[C@H](Cc1ccc2ccccc2c1)C(=O)N[C@H](Cc1ccc(Cl)cc1)C(=O)N[C@H](Cc1cccnc1)C(=O)N[C@@H](CO)C(=O)N[C@@H](Cc1ccc(NC(=O)[C@@H]2CC(=O)NC(=O)N2)cc1)C(=O)N[C@H](Cc1ccc(NC(N)=O)cc1)C(=O)N[C@@H](CC(C)C)C(=O)N[C@@H](CCCCNC(C)C)C(=O)N1CCC[C@H]1C(=O)N[C@H](C)C(N)=O [degarelix, Ac-D-2Nal-D-Phe(4Cl)-D-3 Pal-Ser-4Aph(Hor)-D-4Aph(Cbm)-Leu-ILys-Pro-D-Ala-NH2] (Ac-[d2Nal][dPhe(4-Cl)][d3Pal]S[Phe(4-NH2)](Dihydroorotyl(S))[dPhe(4-NHCONH2)]L[Lys(iPr)]P[dA]-NH2)	7	1.8	did not result in any formation of the hydantoin analogue		
Z-Ser(tBu)-4Aph(Hor)-D-4Aph(tBu-Cbm)-Leu-OH.DCHA				1.3	0.3
